Results from PMC3993905 (2014).

System: MMP-2
Test: active MMP-2
Details: human, room temperature, up to 6 h

Substance	cleaved bond
Ac-KKYGPQGIAGQYKK-NH2	G-I, 6 h
Ac-KKYIPVSLRSGYKK-NH2	S-L, 6 h
